{
  "source": "patent US9976142B2",
  "about": "“Targeting molecule and a use thereof” (Nitto Denko Corporation, priority 2014, dated 2018)",
  "system": "rat hepatic stellate cells (HSCs)",
  "assay": "siRNA introduction into rat hepatic stellate cells with targeting molecule/LipoTrust/siRNA lipoplex; HSP47 expression by quantitative PCR",
  "type": "cell-based",
  "conditions": "siRNA 11.5 μg/ml; for HSP47 expression rate (%): FIG. 2, HSP47 relative to GAPDH, untreated cell = 100; for extent of the suppression of the expression of HSP47 gene, compared with RBP Loop 1: FIG. 3; for extent of the suppression of the expression of HSP47 gene, compared with RBP Loop 1 / expression rate of HSP47 gene: peptide 7.7 μM; for expression rate of HSP47 gene: FIG. 5; for suppression of HSP47 expression: peptide stock solutions 1.1-10 mM",
  "method": "LipoTrust™ SR was dissolved in nuclease-free water (Ambion, Cat. No. AM9937) at a concentration of 1 mM of the cationic lipid. 10 μl of this liposome solution was placed in an Eppendorf tube, to which added 1 μl of the stock solution of each peptide above dissolved in DMSO at predetermined concentration (1.1 mM, 1.25 mM, 2.5 mM, 3.4 mM, 5 mM or 10 mM for experiments whose results are shown in FIG. 1; 90 mM for experiments whose results are shown in FIG. 2) or the stock solution of vitamin A above, and the mixture was vortexed for 15 seconds. To this mixture, 1.5 μl of the above siRNA stock solution was added and mixed, then 17.5 μl of 5% glucose aq. solution (OTSUKA GLUCOSE INJECTION 5%, Otsuka Pharmaceutical Co., Ltd.) was added and mixed. Thus obtained solution of liposome-peptide (or vitamin A)-siRNA complex (lipoplex) was left still under shade for 15 min at room temperature. Also, a mixture of the peptide and siRNA without LipoTrust™ SR was prepared as a control.\nTwo days before the siRNA introduction, hepatic stellate cells (HSCs) prepared from a rat liver according to the method of Schaefer et al. (Schaefer et al., Hepatology. 1987 July-August; 7(4):680-7) were inoculated uniformly onto a 6-well plate at a density of 0.2×10^5/well and cultured in a Dulbecco's modified Eagle's medium (D-MEM, Sigma Aldrich, Cat. No. D6546, hereinbelow referred to as “culture medium”) containing 10% fetal bovine serum (Thermo HyClone, Cat. No. SH30070.03), 2% L-glutamine (Sigma Aldrich, Cat. No. G7513) and 1% penicillin-streptomycin (Sigma Aldrich, Cat. No. G1146).\nThe culture medium was removed, 900 μl of fresh culture medium was added to each well, and then this was incubated for at least 30 minutes at 37° C. To 30 μl of each lipoplex solution obtained in Example 1, 100 μl of 5% glucose solution was added to make a mixed solution of 130 μl, and 100 μl of said mixture was added to corresponding well. The final concentration of the siRNA at this time was 11.5 μg/ml. After incubating at 37° C., in 5% CO2 for 30 minutes, the medium comprising the lipoplex solution was removed and substituted with the culture medium, and this was cultured under normal condition for 24-36 hours.\nTotal RNA extraction of each sample was carried out using RNeasy Mini kit (Qiagen). Firstly, the culture medium was removed, and 350 μl/well each of RLT/2ME solution which was prepared in advance by mixing RLT solution attached to RNeasy Mini kit with 1% (v/v) 2-mercaptoethanol (2ME, Wako) was dispensed into each well. Total volume of the cell lysate was homogenized with QIAshredder (Qiagen), centrifuged at 4° C. and 12000 rpm for 2 min, and then total RNA was extracted according to the manufacturer's instruction. The obtained RNA was quantified using NanoDrop 2000 (Thermo Fisher Scientific), and cDNA was synthesized by RT-PCR. 20 μl total volume/tube of the reaction solution consisting of 4 μl of the reverse transcriptase mix (Super Script VILO Master Mix, Invitrogen, 11755-250) and 16 μl of total RNA of each sample (containing 100-500 ng or more RNA) was reacted at 25° C. for 5 min, at 42° C. for 60 min, then at 85° C. for 5 min, respectively, and subsequently stored at 4° C.\nThe suppression of HSP47 expression was analyzed by quantitative PCR. As a standard template, the untreated cell sample was used in 10-fold dilution series (the stock solution, 10- and 100-fold dilutions). To each well of MicroAmp (Optical 96-well Reaction Plate, Applied Biosystems, Cat. No. 4306737) added a 48 μl premix consisting of 22 μl of sterile water, 25 μl of Power SYBR® Green (Applied Biosystems, Cat. No. 4367669) and 1 μl of primer mix. The primer mix comprises 50 μM each of the primer set against HSP47 or GAPDH, an internal standard gene, as shown below:\nTo the corresponding well, 2 μl of the template cDNA obtained from each sample was added to make a total volume of 50 μl. […]",
  "key": {"[1]": {"conditions": "each peptide at final concentration 69.2 μM, smaller value = greater suppression"}},
  "note": "Square brackets hold non-standard residues; d marks the D form. Ends that are not written are not given here.",
  "data": [
    {"compound": "CC1=C(/C=C/C(C)=C/C=C/C(C)=C/CO)C(C)(C)CCC1", "note": "[VA, all-trans-retinol, reference compound]", "values": [
      {"measurement": "HSP47 expression rate (%)", "setting": "VA at final concentration 7.7 μM", "result": 46.8, "unit": "%"}
    ]},
    {"compound": "AKDDPEGLFLQKNI (Variant peptide D3K12) [Mutant peptide 3]", "values": [
      {"measurement": "extent of the suppression of the expression of HSP47 gene, compared with RBP Loop 1", "result": "lower"}
    ]},
    {"compound": "AKDKPEGLFLQDNI (Variant peptide D3K4) [Mutant peptide 2]", "values": [
      {"measurement": "extent of the suppression of the expression of HSP47 gene, compared with RBP Loop 1", "result": "lower"}
    ]},
    {"compound": "AKEDPKGLFLQDNI (Variant peptide E3K6) [Mutant peptide 1]", "values": [
      {"measurement": "extent of the suppression of the expression of HSP47 gene, compared with RBP Loop 1", "result": "lower"}
    ]},
    {"compound": "AKFQKLEPGDDLNI (Scramble peptide) [scrambled peptide, negative control, reference compound]", "values": [
      {"measurement": "expression rate of HSP47 gene", "result": "almost the same as the result in the group using no targeting molecule"}
    ]},
    {"compound": "AKGRVRLLNNWDVCA (Synthetic RBP loop 2)", "values": [
      {"measurement": "suppression of HSP47 expression", "setting": "FIG. 1", "result": "concentration-dependent suppression of HSP47 expression"}
    ]},
    {"compound": "AKKDPEGLFLQD (Peptide No. 10-2)", "values": [
      {"measurement": "HSP47 expression rate (%)", "setting": "[1]", "result": 48.5, "unit": "%"}
    ]},
    {"compound": "AKKDPEGLFLQDN (Peptide No. 10-1)", "values": [
      {"measurement": "HSP47 expression rate (%)", "setting": "[1]", "result": 39.3, "unit": "%"}
    ]},
    {"compound": "AKKDPEGLFLQDNI (Synthetic RBP loop 1)", "values": [
      {"measurement": "suppression of HSP47 expression", "setting": "FIG. 1", "result": "concentration-dependent suppression of HSP47 expression"},
      {"measurement": "suppression rate by the complex, compared with vitamin A", "setting": "FIG. 1", "result": "comparable to that by vitamin A"},
      {"measurement": "HSP47 expression rate (%)", "setting": "[1]", "result": 49.0, "unit": "%"},
      {"measurement": "expression rate of HSP47 gene", "result": "significantly decreased"}
    ]},
    {"compound": "KDPEGLFLQD (Peptide No. 10)", "values": [
      {"measurement": "HSP47 expression rate (%)", "setting": "[1]", "result": 57.2, "unit": "%"}
    ]},
    {"compound": "KDPEGLFLQDN (Peptide No. 10-6)", "values": [
      {"measurement": "HSP47 expression rate (%)", "setting": "[1]", "result": 44.3, "unit": "%"}
    ]},
    {"compound": "KDPEGLFLQDNI (Peptide No. 10-4)", "values": [
      {"measurement": "HSP47 expression rate (%)", "setting": "[1]", "result": 42.9, "unit": "%"}
    ]},
    {"compound": "KKDPEGLFLQD (Peptide No. 10-5)", "values": [
      {"measurement": "HSP47 expression rate (%)", "setting": "[1]", "result": 40.4, "unit": "%"}
    ]},
    {"compound": "KKDPEGLFLQDNI (Peptide No. 10-3)", "values": [
      {"measurement": "HSP47 expression rate (%)", "setting": "[1]", "result": 31.2, "unit": "%"}
    ]},
    {"compound": "d-INDQLFLGEPDKKA-amide ([dI][dN][dD][dQ][dL][dF][dL]G[dE][dP][dD][dK][dK][dA]-NH2; N-terminus assumed; SMILES CC[C@@H](C)[C@@H](N)C(=O)N[C@H](CC(N)=O)C(=O)N[C@H](CC(=O)O)C(=O)N[C@H](CCC(N)=O)C(=O)N[C@H](CC(C)C)C(=O)N[C@H](Cc1ccccc1)C(=O)N[C@H](CC(C)C)C(=O)NCC(=O)N[C@H](CCC(=O)O)C(=O)N1CCC[C@@H]1C(=O)N[C@H](CC(=O)O)C(=O)N[C@H](CCCCN)C(=O)N[C@H](CCCCN)C(=O)N[C@H](C)C(N)=O) [retro-inverso peptide]", "values": [
      {"measurement": "targetability (suppression of HSP47)", "setting": "FIG. 4, peptide 23.1 μM", "result": "almost the same targetability as that of RBP Loop 1"}
    ]}
  ]
}
